Test results reported in ChEMBL document CHEMBL1147250, “Enhancement of the antiplasmodial activity of quassin by transformation into a gamma-lactone” (J Nat Prod, 2003).

What was measured:
[1] = tested on: Plasmodium falciparum; assay: Antiplasmodial activity against chloroquine-resistant Plasmodium falciparum K1 infected erythrocytes by [3H]hypoxanthine uptake; assay type: functional, organism-based
[2] = Selectivity index, ratio of IC50 for human KB cells to IC50 for Plasmodium falciparum K1; assay type: toxicity, cell-based; conditions: KB cells (cytotoxicity) versus Plasmodium falciparum K1, read-out: Selectivity Index
[3] = tested on: Plasmodium falciparum; assay: Antiplasmodial activity against Plasmodium falciparum K1

Structure (SMILES)	IC50 [1] [µM]	selectivity ratio [2]	IC50 [3] [µM]
COC1=C[C@@H](C)[C@@H]2C[C@H]3O[C@@H](O)[C@H]4C(C)=C(OC)C(=O)[C@H]([C@@]2(C)C1=O)[C@]43C [QUASSILACTOL]	576	8.9	65
CCN(CC)CCCC(C)Nc1ccnc2cc(Cl)ccc12 (configuration not stated) [CHLOROQUINE PHOSPHATE]			0.6
COC1=C[C@@H](C)[C@@H]2C[C@H]3OC(=O)C[C@H]4C(C)=C(OC)C(=O)[C@H]([C@@]2(C)C1=O)[C@@]34C [QUASSIN]	> 1000	> 1	911
COC1=C[C@@H](C)[C@@H]2C[C@H]3OC(O)C[C@H]4C(C)=C(OC)C(=O)[C@H]([C@@]2(C)C1=O)[C@@]34C (some centres not stated) [NEOQUASSIN]	615	1.3	473
COC1=C[C@@H](C)[C@@H]2C[C@H]3OC(OC(=O)c4cccc(Cl)c4)[C@H](O)[C@H]4C(C)=C(OC)C(=O)[C@H]([C@@]2(C)C1=O)[C@]43C (some centres not stated)	232	112	1.8
CC[C@H]1CN2CCc3cc(OC)c(OC)cc3[C@@H]2C[C@@H]1C[C@H]1NCCc2cc(OC)c(OC)cc21	0.96		
COC1=C[C@@H](C)[C@@H]2C[C@H]3OC(OC4C[C@H]5C(C)=C(OC)C(=O)[C@@H]6[C@@]7(C)C(=O)C(OC)=C[C@@H](C)[C@@H]7C[C@@H](O4)[C@]65C)C[C@H]4C(C)=C(OC)C(=O)[C@H]([C@@]2(C)C1=O)[C@@]34C (some centres not stated) [NEOQUASSIN ETHER]	149	15.3	9.7
COC1=C[C@@H](C)[C@@H]2C[C@H]3OC(O)[C@H](O)[C@H]4C(C)=C(OC)C(=O)[C@H]([C@@]2(C)C1=O)[C@]43C (some centres not stated) [HYDROXYNEOQUASSINS]			68
COC1=C[C@@H](C)[C@@H]2C[C@H]3OC(=O)[C@H]4C(C)=C(OC)C(=O)[C@H]([C@@]2(C)C1=O)[C@]43C [QUASSILACTONE]	406	17.7	23
COC1=C[C@@H](C)[C@@H]2C[C@H]3OC=C[C@H]4C(C)=C(OC)C(=O)[C@H]([C@@]2(C)C1=O)[C@@]34C [ANHYDROQUASSIN]	> 1000	> 1	809
COC1=C[C@@H](C)[C@@H]2C[C@H]3OC(=O)[C@H](O)[C@H]4C(C)=C(OC)C(=O)[C@H]([C@@]2(C)C1=O)[C@]43C	> 1000	> 1.1	930
